From US10669272B2, “Substituted naphthyridinone compounds useful as T cell activators” (BRISTOL-MYERS SQUIBB COMPANY, priority 2018, dated 2020) come the findings set out here.

One assay concerns Human venous whole blood. The experiment in a line: Human whole blood IFN-γ assay.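 Further: blood from healthy donors exposed to compound for 1 h before stimulation with anti-CD3 and anti-CD28 at 1 µg/mL each, IFN-γ quantified in supernatant by AlphaLISA.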 In kind it is cell-based. The following applies: human whole blood, read-out: INFg Whole Blood Normalized Agonist EC50.
For a further assay, the target named is T1, human DGKα (Homo sapiens, UniProt P23743).
T1 construct: TVMV protease cleavage site (C); Hexa-His (C); made in house; host or cells: Sf9 insect cells (baculovirus, Bac-to-Bac)
Kind of assay: DGKα LIPGLO assay (extruded liposome substrate), in vitro DGK inhibition. In kind it is biochemical.

The next assay concerns the target T2, human DGKζ (Homo sapiens, UniProt Q13574).
T2 construct: TVMV protease cleavage site (C); Hexa-His (C); made in house; host or cells: Sf9 insect cells (baculovirus, Bac-to-Bac)
The experiment in a line: DGKζ LIPGLO assay (extruded liposome substrate), in vitro DGK inhibition. In kind it is biochemical. The note with it: read-out: DGKz LIPGLO IC50.

The mark [1] stands for this setting: normalized to 3 μM reference compound with anti-CD3 plus anti-CD28 as 100% activation.
[2] abbreviates: liposome (LIPGLO) assay, read-out: DGKa LIPGLO IC50.
Setting [3] is: Homo sapiens, 24 h, normalized to 3 μM reference compound with anti-CD3 plus anti-CD28 as 100% activation.
The mark [4] stands for this setting: anti-CD3 plus anti-CD28, 24 hours, 3 μM reference compound = 100% activation.
Setting [5] is: DGKα liposome (LIPGLO) assay, read-out: DGKa LIPGLO IC50.
The mark [6] stands for this setting: Homo sapiens, 24 h, anti-CD3 plus anti-CD28, 24 hours, 3 μM reference compound = 100% activation.

The structures appear in SMILES notation. Where two headings read alike, the source gives them in different places.

T2 sequence (Q13574 with tags, fused parts or gaps isoform Q13574-4): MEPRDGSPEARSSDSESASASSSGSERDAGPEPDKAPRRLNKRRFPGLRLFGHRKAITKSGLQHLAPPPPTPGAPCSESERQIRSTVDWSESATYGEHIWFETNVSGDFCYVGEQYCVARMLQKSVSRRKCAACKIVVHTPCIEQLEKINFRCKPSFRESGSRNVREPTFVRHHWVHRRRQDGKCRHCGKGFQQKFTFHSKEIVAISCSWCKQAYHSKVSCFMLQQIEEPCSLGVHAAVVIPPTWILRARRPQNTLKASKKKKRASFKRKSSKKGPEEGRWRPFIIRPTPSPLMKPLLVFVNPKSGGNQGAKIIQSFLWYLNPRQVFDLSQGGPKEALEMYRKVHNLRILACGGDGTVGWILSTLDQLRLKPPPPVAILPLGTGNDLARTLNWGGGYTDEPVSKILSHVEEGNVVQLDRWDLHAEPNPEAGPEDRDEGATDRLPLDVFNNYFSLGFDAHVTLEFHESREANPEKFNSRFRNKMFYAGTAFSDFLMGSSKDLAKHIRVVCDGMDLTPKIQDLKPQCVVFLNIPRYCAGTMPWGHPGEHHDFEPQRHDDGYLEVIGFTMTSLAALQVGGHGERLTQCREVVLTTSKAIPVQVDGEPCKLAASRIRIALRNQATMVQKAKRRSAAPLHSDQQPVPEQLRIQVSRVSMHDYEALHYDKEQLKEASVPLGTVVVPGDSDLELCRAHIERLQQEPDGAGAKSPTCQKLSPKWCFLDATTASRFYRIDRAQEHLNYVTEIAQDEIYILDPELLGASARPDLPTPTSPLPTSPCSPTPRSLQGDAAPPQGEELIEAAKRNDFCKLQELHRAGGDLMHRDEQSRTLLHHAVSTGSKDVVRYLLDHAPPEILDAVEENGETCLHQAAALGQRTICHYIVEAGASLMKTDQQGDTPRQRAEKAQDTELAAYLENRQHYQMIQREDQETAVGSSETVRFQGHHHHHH
T1 sequence (P23743 with tags, fused parts or gaps): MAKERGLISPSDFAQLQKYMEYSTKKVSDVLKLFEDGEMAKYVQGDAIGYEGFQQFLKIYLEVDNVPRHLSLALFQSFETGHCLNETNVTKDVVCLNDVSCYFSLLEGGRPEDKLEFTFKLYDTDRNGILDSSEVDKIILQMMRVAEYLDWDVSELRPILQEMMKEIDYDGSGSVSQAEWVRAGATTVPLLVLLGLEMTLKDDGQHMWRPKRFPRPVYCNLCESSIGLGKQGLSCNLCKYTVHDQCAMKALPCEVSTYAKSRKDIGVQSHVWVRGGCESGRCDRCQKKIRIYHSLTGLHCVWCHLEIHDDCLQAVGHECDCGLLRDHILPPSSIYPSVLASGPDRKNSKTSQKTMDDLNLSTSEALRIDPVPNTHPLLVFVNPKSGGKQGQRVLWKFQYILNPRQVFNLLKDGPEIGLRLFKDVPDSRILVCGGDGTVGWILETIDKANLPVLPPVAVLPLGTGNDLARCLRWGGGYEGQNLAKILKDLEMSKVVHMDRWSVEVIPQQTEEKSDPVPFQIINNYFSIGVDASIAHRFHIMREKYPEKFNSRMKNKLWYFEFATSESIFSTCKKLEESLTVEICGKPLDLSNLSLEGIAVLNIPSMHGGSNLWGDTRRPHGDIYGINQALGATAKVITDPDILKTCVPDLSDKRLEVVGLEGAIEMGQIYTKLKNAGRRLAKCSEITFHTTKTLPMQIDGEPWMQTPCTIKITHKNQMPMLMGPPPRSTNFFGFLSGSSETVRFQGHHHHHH
Procedure for Human venous whole blood: Human Whole Blood IFN-γ Assay
Human venous whole blood (22.5 μL per well), obtained from healthy donors, was pre-treated with compounds for one hour at 37° C. in a humidified 95% air/5% CO2 incubator. The blood was stimulated with 2.5 μL anti-human CD3 and anti-CD28 mAb at a final concentration of 1 μg/mL each for 24 hours at 37° C. IFN-γ in the supernatants was measured using AlphLISA kit (Cat # AL217).

The term EC50 denotes the concentration needed to bring the measured effect to its halfway point. One may read the IC50 as the point on the concentration scale where inhibition reaches its midpoint. With `CC(C)Oc1ccc(C(C)N2C[C@H](C)N(c3cc(=O)n(C)c4ccc(C#N)nc34)C[C@H]2C)cn1` (single isomer, unassigned) [Example 1324], in the assay on Human venous whole blood (setting [1]), the EC50 stood at 690 nM. Besides, the IC50 worked out at 12000 nM on human DGKα (setting [2]) and 140 nM on human DGKζ (liposome (LIPGLO) assay).

Regarding `COCCOc1cc(C(C)N2C[C@H](C)N(c3cc(=O)n(C)c4ccc(C#N)nc34)C[C@H]2C)ccc1OC` (single isomer, unassigned) [Example 1303], in the assay with Human venous whole blood (setting [3]), the EC50 turned out to be 20000 nM. Moreover, the figures for the IC50 on human DGKα (setting [2]) and at human DGKζ (liposome (LIPGLO) assay) were 65000 nM and 2900 nM, respectively.

Take `CC(c1ccc(Cl)cc1)N1C[C@H](C)N(c2c(C#N)c(=O)n(C)c3ccc(C#N)nc23)C[C@H]1C` (single isomer, unassigned) [Example 792]: in the assay with Human venous whole blood (setting [4]), the EC50 was 21000 nM. Besides, the IC50 against human DGKα (DGKa LIPGLO IC50, DGKα liposome (LIPGLO) assay) amounted to 1500 nM; on human DGKζ (DGKζ liposome (LIPGLO) assay) it was 83000 nM.

Turning to `C[C@@H]1CN(c2cc(=O)n(C)c3ccc(C#N)nc23)[C@@H](C)CN1C(c1ccc(F)cc1)c1cccc(C(F)(F)F)n1` (stereo partly drawn) [Example 679], the EC50 with Human venous whole blood (setting [1]) is 1300 nM. Also, the IC50 on human DGKα (setting [2]) worked out at 5400 nM; on human DGKζ (liposome (LIPGLO) assay), 720 nM.

Consider `C[C@@H]1CN(c2cc(=O)n(C)c3ccc(C#N)nc23)[C@@H](C)CN1C(c1ccc(Br)cc1)c1nc(C2CC2)no1` (stereo partly drawn) [Example 761], for which, in the assay on Human venous whole blood (setting [4]), the EC50 turned out to be 170 nM. Further, the IC50 was 48 nM on human DGKα (setting [5]) and 41 nM on human DGKζ (DGKζ liposome (LIPGLO) assay).

In the case of `COC[C@@H]1CN(c2cc(=O)n(C)c3ccc(C#N)nc23)[C@@H](C)CN1C(c1ccc(F)cc1)c1nc(C2CC2)no1` (single isomer, unassigned) [Example 1394], the EC50 in the assay with Human venous whole blood (setting [3]) was found to be 450 nM. The 50% inhibitory concentration (IC50) at human DGKα (setting [2]) is 53 nM; at human DGKζ (liposome (LIPGLO) assay), 37 nM.

For `Cc1ccc(C(c2ccc(Cl)cc2)N2C[C@H](C)N(c3cc(=O)n(C)c4ccc(C#N)nc34)C[C@H]2C)nc1` (single isomer, unassigned) [Example 365], in the assay on Human venous whole blood (setting [1]), the EC50 was 360 nM. Also, the IC50 at human DGKα (setting [2]) stood at 270 nM; at human DGKζ (liposome (LIPGLO) assay), 770 nM.

`C[C@@H]1CN(c2cc(=O)n(C)c3ccc(C#N)nc23)[C@@H](C)CN1C(c1ccc(F)cc1)c1cncn1C` (stereo partly drawn) [Example 705]: the EC50 with Human venous whole blood (setting [1]) was 9100 nM. Also, the IC50 at human DGKα (setting [2]) came to 220000 nM; on human DGKζ (liposome (LIPGLO) assay), 19000 nM.

For the compound `C[C@@H]1CN(c2c(C#N)c(=O)n(C)c3ccc(C#N)nc23)CCN1Cc1ccccc1C(F)(F)F` [Example 1014], the EC50 in the assay with Human venous whole blood (setting [6]) amounted to 20000 nM. Also, the results for the IC50 at human DGKα (setting [5]) and at human DGKζ (DGKζ liposome (LIPGLO) assay) were 1300 nM and 1900 nM, respectively.

For `C[C@@H]1CN(c2cc(=O)n(C)c3ccc(C#N)nc23)[C@@H](C)CN1Cc1ccc(OC(F)(F)F)c(C#N)c1` [Example 584], the EC50 with Human venous whole blood (setting [3]) was found to be 3400 nM. Moreover, the IC50 on human DGKα (setting [2]) turned out to be 5900 nM; on human DGKζ (liposome (LIPGLO) assay), 7900 nM.

On to `CC(c1cc(C2CC2)on1)N1C[C@H](C)N(c2cc(=O)n(C)c3ccc(C#N)nc23)C[C@H]1C` (single isomer, unassigned) [Example 1282], for which, in the assay on Human venous whole blood (setting [1]), the EC50 worked out at 5200 nM. Also, the IC50 is 1400 nM on human DGKα (setting [2]) and 2100 nM on human DGKζ (liposome (LIPGLO) assay).

On to `C[C@@H]1CN(c2c(C#N)c(=O)n(C)c3ccc(C#N)nc23)CCN1C(c1ccc(F)cc1)c1cccc(C(F)(F)F)n1` (single isomer, unassigned) [Example 921], for which the EC50 with Human venous whole blood (setting [4]) worked out at 1500 nM. For the same compound, the IC50 at human DGKα (setting [5]) came out at 23000 nM; at human DGKζ (DGKζ liposome (LIPGLO) assay), 3100 nM.

`COCc1cc(C(C)N2C[C@H](C)N(c3cc(=O)n(C)c4ccc(C#N)nc34)C[C@H]2C)ccc1F` (single isomer, unassigned) [Example 1317]: the EC50 in the assay with Human venous whole blood (setting [1]) worked out at 2900 nM. In addition, the IC50 came to 8000 nM on human DGKα (setting [2]) and 970 nM on human DGKζ (liposome (LIPGLO) assay).

With `CC(c1c(F)cccc1F)N1C[C@H](C)N(c2c(C#N)c(=O)n(C)c3ccc(C#N)nc23)C[C@H]1C` (single isomer, unassigned) [Example 781], in the assay on Human venous whole blood (setting [6]), the EC50 stood at 830 nM. The IC50 at human DGKα (setting [5]) is 74 nM; on human DGKζ (DGKζ liposome (LIPGLO) assay), 120 nM.

As for `CC(c1c(F)cccc1F)N1CCN(c2c(C#N)c(=O)n(C)c3ccc(C#N)nc23)C[C@H]1C` (single isomer, unassigned) [Example 950], the 50% effective concentration (EC50) in the assay on Human venous whole blood (setting [4]) stood at 3800 nM. The results for the IC50 on human DGKα (setting [5]) and on human DGKζ (DGKζ liposome (LIPGLO) assay) were 210 nM and 370 nM, respectively.

With `CC[C@H]1CN(C(c2ccc(F)cc2)c2ccc(C#N)cc2)[C@H](CC)CN1c1cc(=O)n(C)c2ccc(C#N)nc12` (stereo partly drawn) [Example 1036], the EC50 with Human venous whole blood (setting [1]) stood at 200 nM. The IC50 came to 300 nM on human DGKα (setting [2]) and 520 nM on human DGKζ (liposome (LIPGLO) assay).

As for `C[C@@H]1CN(c2cc(=O)n(C)c3ccc(C#N)nc23)[C@@H](C)CN1C(c1ccc(F)cc1)c1nnnn1C(C)(C)C` (single isomer, unassigned) [Example 770], the EC50 in the assay with Human venous whole blood (setting [6]) is 8500 nM. Further, the IC50 stood at 21000 nM on human DGKα (setting [5]) and 1700 nM at human DGKζ (DGKζ liposome (LIPGLO) assay).

`C[C@@H]1CN(c2cc(=O)n(C)c3ccc(C#N)nc23)[C@@H](C)CN1Cc1ccc(OC(F)F)cc1F` [Example 590]: the EC50 in the assay with Human venous whole blood (setting [3]) worked out at 1900 nM. Further, the IC50 on human DGKα (setting [2]) came to 330 nM; on human DGKζ (liposome (LIPGLO) assay), 5100 nM.

Regarding `COc1cc(F)c(C(C)N2C[C@H](C)N(c3cc(=O)n(C)c4ccc(C#N)nc34)C[C@H]2C)cc1F` (stereo partly drawn) [Example 1244], the EC50 in the assay on Human venous whole blood (setting [3]) was 120 nM. Moreover, the IC50 on human DGKα (setting [2]) turned out to be 660 nM; at human DGKζ (liposome (LIPGLO) assay) it was 30 nM.

As to `C[C@@H]1CN(c2c(C#N)c(=O)n(C)c3ccc(C#N)nc23)CCN1C(c1ccc(F)cc1)c1cn(C)cn1` (single isomer, unassigned) [Example 1027], the EC50 in the assay on Human venous whole blood (setting [1]) came out at 7300 nM. The IC50 at human DGKα (setting [2]) turned out to be 29000 nM; on human DGKζ (liposome (LIPGLO) assay), 2200 nM.

For `C[C@@H]1CN(c2cc(=O)n(C)c3ccc(C#N)nc23)[C@@H](C)CN1C(c1ccc(F)cc1)c1nc(C2CCOCC2)no1` (single isomer, unassigned) [Example 740], the EC50 in the assay with Human venous whole blood (setting [4]) worked out at 120 nM. Further, the figures for the IC50 at human DGKα (setting [5]) and at human DGKζ (DGKζ liposome (LIPGLO) assay) were 610 nM and 1300 nM, respectively.

On to `Cc1cccc(C(c2ccc(F)cc2)N2C[C@H](C)N(c3c(C#N)c(=O)n(C)c4ccc(C#N)nc34)C[C@H]2C)n1` (stereo partly drawn) [Example 815], for which the 50% effective concentration (EC50) in the assay with Human venous whole blood (setting [6]) was found to be 1900 nM. For the same compound, the IC50 on human DGKα (setting [5]) is 7700 nM; on human DGKζ (DGKζ liposome (LIPGLO) assay), 4100 nM.

With `C[C@@H]1CN(c2cc(=O)n(C)c3ccc(C#N)nc23)[C@@H](C)CN1Cc1ccc(OC(F)(F)F)cc1F` (single isomer, unassigned) [Example 591], the EC50 in the assay with Human venous whole blood (setting [3]) stood at 19000 nM. The IC50 on human DGKα (setting [2]) stood at 3100 nM; on human DGKζ (liposome (LIPGLO) assay), 3900 nM.

As to `CC(c1ccc(P(C)(C)=O)cc1)N1C[C@H](C)N(c2cc(=O)n(C)c3ccc(C#N)nc23)C[C@H]1C` (stereo partly drawn) [Example 1291], the EC50 with Human venous whole blood (setting [1]) was found to be 20000 nM. In addition, the IC50 at human DGKα (setting [2]) is 97000 nM; at human DGKζ (liposome (LIPGLO) assay), 96000 nM.

Take `COCC(c1ccc(C(F)(F)F)cn1)N1C[C@H](C)N(c2cc(=O)n(C)c3ccc(C#N)nc23)C[C@H]1C` (single isomer, unassigned) [Example 1277]: the EC50 in the assay with Human venous whole blood (setting [3]) was 1400 nM. Also, the half-maximal inhibitory concentration (IC50) was 69 nM at human DGKα (setting [2]) and 610 nM at human DGKζ (liposome (LIPGLO) assay).

Regarding `C[C@@H]1CN(c2c(C#N)c(=O)n(C)c3ccc(C#N)nc23)[C@@H](C)CN1C(c1ccc(F)cc1)c1ncccc1F` (single isomer, unassigned) [Example 820], the EC50 with Human venous whole blood (setting [6]) is 2200 nM. Moreover, the results for the IC50 on human DGKα (setting [5]) and on human DGKζ (DGKζ liposome (LIPGLO) assay) were 920 nM and 2000 nM, respectively.

As for `CCC(c1cc(OC(F)(F)F)ccc1F)N1C[C@H](CC)N(c2cc(=O)n(C)c3ccc(C#N)nc23)C[C@H]1C` (single isomer, unassigned) [Example 1380], the EC50 in the assay with Human venous whole blood (setting [1]) came out at 470 nM. Besides, the IC50 was determined as 850 nM on human DGKα (setting [2]) and 180 nM at human DGKζ (liposome (LIPGLO) assay).
